Structures are written as SMILES.

For the experiment, the system named is Aβ42 release. Nature of the experiment: Aβ release in cells stably expressing APPswe, Meso Scale Discovery electrochemiluminescence assay. Format: cell-based, Human. To be noted: Homo sapiens, SH-SY5Y, HEK or SH-SY5Y cells stably expressing APPswe, 4-6 hours incubation with test compound. The method, boiled down: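 HEK or SH-SY5Y cells stably expressing APPswe, plated 15-24 h, then exposed to compound (diluted ×200 into fresh medium) for 4-6 h at 37 °C. Secreted Aβ42 in medium quantified by Meso Scale Discovery electrochemiluminescence with specific antibodies; cytotoxicity checked by cellular ATP content.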
Broadly, the IC50 is the concentration that gives 50% inhibition. Take `Cc1cc(C(C)c2ccccc2)nc(Nc2ccc(-n3ccnc3C)cc2)n1` (stereo not drawn) [Example 87, 4-Methyl-N-(4-(2-methyl-1H-imidazol-1-yl)phenyl)-6-(1-phenylethyl)pyrimidin-2-amine]: the concentration for half-maximal inhibition (IC50) is 316 nM. Take `CC(=O)N1CCc2nc(Nc3ccc(-c4cnco4)cc3)nc(N(C)C3CCCCC3)c2C1` [Example 88, 1-(4-(Cyclohexyl(methyl)amino)-2-(4-(oxazol-5-yl)phenylamino)-7,8-dihydropyrido[4,3-d]pyrimidin-6(5H)-yl)ethanone]: the IC50 was 398 nM. Consider `CC(=O)N1CCc2nc(Nc3ccc(-c4cnco4)cc3)nc(N(C)c3ccc(F)cc3)c2C1` [Example 89, 1-(4-((4-Fluorophenyl)(methyl)amino)-2-(4-(oxazol-5-yl)phenylamino)-7,8-dihydropyrido[4,3-d]pyrimidin-6(5H)-yl)ethanone], for which the IC50 is 631 nM. With `CC(=O)N1CCc2nc(Nc3ccc(-c4cnco4)cc3)nc(N3CCc4ccccc43)c2C1` [Example 90, 1-(4-(Indolin-1-yl)-2-(4-(oxazol-5-yl)phenylamino)-7,8-dihydropyrido[4,3-d]pyrimidin-6(5H)-yl)ethanone], the IC50 is 631 nM. For `CC(=O)N1CCc2nc(Nc3ccc(-c4cnco4)cc3)nc(N(C)Cc3ccccc3CO)c2C1` [Example 91, 1-(4-((2-(Hydroxymethyl)benzyl)(methyl)amino)-2-(4-(oxazol-5-yl)phenylamino)-7,8-dihydropyrido[4,3-d]pyrimidin-6(5H)-yl)ethanone] the value was 2510 nM; for `CC(=O)N1CCc2nc(Nc3ccc(-c4cnco4)cc3)nc(N(C)Cc3ccccn3)c2C1` [Example 92, 1-(4-(Methyl(pyridin-2-ylmethyl)amino)-2-(4-(oxazol-5-yl)phenylamino)-7,8-dihydropyrido[4,3-d]pyrimidin-6(5H)-yl)ethanone], 5010 nM; for `CC(=O)N1CCc2nc(Nc3ccc(-c4cnco4)cc3)nc(N3CCCC(CO)C3)c2C1` (stereo not drawn) [Example 93, 1-(4-(3-(Hydroxymethyl)piperidin-1-yl)-2-(4-(oxazol-5-yl)phenylamino)-7,8-dihydropyrido[4,3-d]pyrimidin-6(5H)-yl)ethanone], 6310 nM.

As for `CC(=O)N1CCc2nc(Nc3ccc(-c4cnco4)cc3)nc(N3CCCCC3CO)c2C1` (stereo not drawn) [Example 94, 1-(4-(2-(Hydroxymethyl)piperidin-1-yl)-2-(4-(oxazol-5-yl)phenylamino)-7,8-dihydropyrido[4,3-d]pyrimidin-6(5H)-yl)ethanone], the IC50 is 5010 nM. Take `COc1cccc(Cc2nc(Nc3ccc(-n4cnc(C)c4)c(OC)c3)nc3c2CN(C)CC3)c1` [Example 95, N-(3-Methoxy-4-(4-methyl-1H-imidazol-1-yl)phenyl)-4-(3-methoxybenzyl)-6-methyl-5,6,7,8-tetrahydropyrido[4,3-d]pyrimidin-2-amine]: the IC50 was 39.8 nM. As for `COc1cccc(Cc2nc(Nc3ccc(-n4cnc(C)c4)c(OC)c3)nc3c2CN(C(C)=O)CC3)c1` [Example 96, 1-(2-(3-Methoxy-4-(4-methyl-1H-imidazol-1-yl)phenylamino)-4-(3-methoxybenzyl)-7,8-dihydropyrido[4,3-d]pyrimidin-6(5H)-yl)ethanone], the half-inhibitory concentration (IC50) was 63.1 nM. For `COc1cccc(Cc2nc(Nc3ccc(-n4ccnc4C)cc3)nc3c2CN(C(C)=O)CC3)c1` [Example 97, 1-(4-(3-Methoxybenzyl)-2-(4-(2-methyl-1H-imidazol-1-yl)phenylamino)-7,8-dihydropyrido[4,3-d]pyrimidin-6(5H)-yl)ethanone] the value was 631 nM. Take `CC(=O)N1CCc2nc(Nc3ccc(-n4ccnc4C)cc3)nc(Cc3ccccc3F)c2C1` [Example 98, 1-(4-(2-Fluorobenzyl)-2-(4-(2-methyl-1H-imidazol-1-yl)phenylamino)-7,8-dihydropyrido[4,3-d]pyrimidin-6(5H)-yl)ethanone]: the IC50 was 794 nM.

The record behind these values is patent publication US8188101B2 (AstraZeneca AB, priority 2008, dated 2012).
